From ChEMBL document CHEMBL1201862, “PubChem BioAssay data set” (2004)
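Cultured in 96-well plates, cells were exposed to test compound for 48 hours across five concentrations. Abbreviation: GI50, concentration required for 50% inhibition of growth.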 Active and inactive are the calls of the source. No stated cut-off is given here; in the data, active = GI50 up to about 1.1 µM and inactive = higher.

Experiments:
Assay in all cases: NCI-60 cell line screen, 48 h
RPMI-8226 = tested on: RPMI-8226
PC-3 = tested on: PC-3
KM12 = tested on: KM12
OVCAR-4 = tested on: OVCAR-4
UO-31 = tested on: UO-31
A498 = tested on: A498
OVCAR-3 = tested on: OVCAR-3
786-0 = tested on: 786-0
MDA-MB-435 = tested on: MDA-MB-435
UACC-62 = tested on: UACC-62
HT-29 = tested on: HT-29
SF-539 = tested on: SF-539
MDA-N = tested on: MDA-N
MOLT-4 = tested on: MOLT-4
NCI-H522 = tested on: NCI-H522
Hs-578T = tested on: Hs-578T
HCT-15 = tested on: HCT-15
SW-620 = tested on: SW-620
A549 = tested on: A549
SNB-75 = tested on: SNB-75
T47D = tested on: T47D
SK-MEL-28 = tested on: SK-MEL-28
SK-OV-3 = tested on: SK-OV-3
OVCAR-8 = tested on: OVCAR-8
MDA-MB-231 = tested on: MDA-MB-231
SK-MEL-5 = tested on: SK-MEL-5
K562 = tested on: K562
EKVX = tested on: EKVX
DU-145 = tested on: DU-145
NCI-H23 = tested on: NCI-H23
NCI-H460 = tested on: NCI-H460
CAKI-1 = tested on: CAKI-1
UACC-257 = tested on: UACC-257
SF-268 = tested on: SF-268
ACHN = tested on: ACHN
OVCAR-5 = tested on: OVCAR-5
MCF7 = tested on: MCF7
SF-295 = tested on: SF-295
SN12C = tested on: SN12C
HCT-116 = tested on: HCT-116
HOP-62 = tested on: HOP-62
M14 = tested on: M14
RXF 393 = tested on: RXF 393
BT-549 = tested on: BT-549
SNB-19 = tested on: SNB-19
COLO 205 = tested on: COLO 205
U-251 = tested on: U-251
TK-10 = tested on: TK-10
SK-MEL-2 = tested on: SK-MEL-2
NCI/ADR-RES = tested on: NCI/ADR-RES
Malme-3M = tested on: Malme-3M
NCI-H226 = tested on: NCI-H226
IGROV-1 = tested on: IGROV-1
LOX IMVI = tested on: LOX IMVI
CCRF-CEM = tested on: CCRF-CEM
HCC 2998 = tested on: HCC 2998

## CCOC(=O)C1=COC(C)(C)CC1=O
RPMI-8226
  GI50: > 100 µM (inactive)
PC-3
  GI50: > 100 µM (inactive)
KM12
  GI50: > 100 µM (inactive)
OVCAR-4
  GI50: > 100 µM (inactive)
UO-31
  GI50: > 100 µM (inactive)
A498
  GI50: > 100 µM (inactive)
OVCAR-3
  GI50: > 100 µM (inactive)
786-0
  GI50: > 100 µM (inactive)
MDA-MB-435
  GI50: > 100 µM (inactive)
UACC-62
  GI50: > 100 µM (inactive)
HT-29
  GI50: > 100 µM (inactive)
SF-539
  GI50: > 100 µM (inactive)
MDA-N
  GI50: > 100 µM (inactive)
MOLT-4
  GI50: > 100 µM (inactive)
NCI-H522
  GI50: > 100 µM (inactive)
Hs-578T
  GI50: > 100 µM (inactive)
HCT-15
  GI50: > 100 µM
SW-620
  GI50: > 100 µM (inactive)
A549
  GI50: > 100 µM (inactive)
SNB-75
  GI50: > 100 µM (inactive)
T47D
  GI50: > 100 µM (inactive)
SK-MEL-28
  GI50: > 100 µM (inactive)
SK-OV-3
  GI50: > 100 µM (inactive)
OVCAR-8
  GI50: > 100 µM (inactive)
MDA-MB-231
  GI50: > 100 µM (inactive)
SK-MEL-5
  GI50: > 100 µM (inactive)
K562
  GI50: > 100 µM (inactive)
EKVX
  GI50: > 100 µM (inactive)
DU-145
  GI50: > 100 µM (inactive)
NCI-H23
  GI50: > 100 µM (inactive)
NCI-H460
  GI50: > 100 µM (inactive)
CAKI-1
  GI50: > 100 µM (inactive)
UACC-257
  GI50: > 100 µM (inactive)
SF-268
  GI50: > 100 µM (inactive)
ACHN
  GI50: > 100 µM (inactive)
OVCAR-5
  GI50: > 100 µM (inactive)
MCF7
  GI50: > 100 µM (inactive)
SF-295
  GI50: > 100 µM (inactive)
SN12C
  GI50: > 100 µM (inactive)
HCT-116
  GI50: > 100 µM (inactive)
HOP-62
  GI50: > 100 µM (inactive)
M14
  GI50: > 100 µM (inactive)
RXF 393
  GI50: > 100 µM (inactive)
BT-549
  GI50: > 100 µM (inactive)
SNB-19
  GI50: > 100 µM (inactive)
COLO 205
  GI50: > 100 µM (inactive)
U-251
  GI50: > 100 µM (inactive)
TK-10
  GI50: > 100 µM (inactive)
SK-MEL-2
  GI50: > 100 µM (inactive)
NCI/ADR-RES
  GI50: > 100 µM (inactive)

## NCCCNCCS
PC-3
  GI50: > 100 µM (inactive)
A498
  GI50: > 100 µM (inactive)
OVCAR-3
  GI50: > 100 µM (inactive)
MDA-MB-435
  GI50: 65.5 µM (inactive)
SF-539
  GI50: > 100 µM (inactive)
Malme-3M
  GI50: > 100 µM (inactive)
MDA-N
  GI50: > 100 µM (inactive)
NCI-H522
  GI50: 91.8 µM (inactive)
Hs-578T
  GI50: > 100 µM (inactive)
HCT-15
  GI50: 74.3 µM
SNB-75
  GI50: > 100 µM (inactive)
T47D
  GI50: > 100 µM (inactive)
NCI-H226
  GI50: > 100 µM (inactive)
SK-MEL-28
  GI50: > 100 µM (inactive)
IGROV-1
  GI50: > 100 µM (inactive)
MDA-MB-231
  GI50: > 100 µM (inactive)
DU-145
  GI50: > 100 µM (inactive)
NCI-H23
  GI50: > 100 µM (inactive)
NCI-H460
  GI50: > 100 µM (inactive)
CAKI-1
  GI50: 51.8 µM (inactive)
ACHN
  GI50: > 100 µM (inactive)
MCF7
  GI50: > 100 µM (inactive)
HCT-116
  GI50: > 100 µM (inactive)
HOP-62
  GI50: > 100 µM (inactive)
BT-549
  GI50: > 100 µM (inactive)
LOX IMVI
  GI50: > 100 µM (inactive)
NCI/ADR-RES
  GI50: > 100 µM (inactive)

## O=C1NC(=S)N/C1=C\c1cccs1
RPMI-8226
  GI50: > 100 µM (inactive)
PC-3
  GI50: > 100 µM (inactive)
KM12
  GI50: > 100 µM (inactive)
OVCAR-4
  GI50: > 100 µM (inactive)
UO-31
  GI50: > 100 µM (inactive)
OVCAR-3
  GI50: > 100 µM (inactive)
786-0
  GI50: > 100 µM (inactive)
MDA-MB-435
  GI50: > 100 µM (inactive)
UACC-62
  GI50: > 100 µM (inactive)
HT-29
  GI50: > 100 µM (inactive)
SF-539
  GI50: > 100 µM (inactive)
Malme-3M
  GI50: > 100 µM (inactive)
MDA-N
  GI50: > 100 µM (inactive)
MOLT-4
  GI50: > 100 µM (inactive)
NCI-H522
  GI50: > 100 µM (inactive)
Hs-578T
  GI50: > 100 µM (inactive)
HCT-15
  GI50: > 100 µM
SW-620
  GI50: > 100 µM (inactive)
A549
  GI50: > 100 µM (inactive)
SNB-75
  GI50: > 100 µM (inactive)
T47D
  GI50: 73.1 µM (inactive)
CCRF-CEM
  GI50: > 100 µM (inactive)
NCI-H226
  GI50: > 100 µM (inactive)
HCC 2998
  GI50: > 100 µM (inactive)
SK-MEL-28
  GI50: > 100 µM (inactive)
SK-OV-3
  GI50: > 100 µM (inactive)
IGROV-1
  GI50: > 100 µM (inactive)
OVCAR-8
  GI50: > 100 µM (inactive)
MDA-MB-231
  GI50: > 100 µM (inactive)
SK-MEL-5
  GI50: > 100 µM (inactive)
K562
  GI50: > 100 µM (inactive)
EKVX
  GI50: > 100 µM (inactive)
DU-145
  GI50: > 100 µM (inactive)
NCI-H23
  GI50: > 100 µM (inactive)
CAKI-1
  GI50: > 100 µM (inactive)
SF-268
  GI50: > 100 µM (inactive)
OVCAR-5
  GI50: > 100 µM (inactive)
MCF7
  GI50: > 100 µM (inactive)
SF-295
  GI50: > 100 µM (inactive)
SN12C
  GI50: > 100 µM (inactive)
HCT-116
  GI50: > 100 µM (inactive)
HOP-62
  GI50: > 100 µM (inactive)
M14
  GI50: > 100 µM (inactive)
RXF 393
  GI50: > 100 µM (inactive)
BT-549
  GI50: > 100 µM (inactive)
SNB-19
  GI50: > 100 µM (inactive)
COLO 205
  GI50: > 100 µM (inactive)
U-251
  GI50: > 100 µM (inactive)
LOX IMVI
  GI50: > 100 µM (inactive)
TK-10
  GI50: > 100 µM (inactive)
SK-MEL-2
  GI50: > 100 µM (inactive)
NCI/ADR-RES
  GI50: > 100 µM (inactive)
